Experimental data: patent US10059733B2 (NUCORION PHARMACEUTICALS, INC., priority 2014, dated 2018)
Read-outs that look alike come from different tables or passages of the source.

Columns and labels:
[1] = test system: HEK293; assay: TC50 assay with human cancer cell lines, 96 h: HEK293; assay type: cell-based
Protocol: (§3) Huh7 cells were maintained at 37° C. in a humidified atmosphere at 5% CO2 in DMEM containing 10% FBS. […] The cells were then treated with each compound at concentrations ranging from 500 μM to 0 μM in triplicate in DMEM media containing 2% FBS and 0.5% DMSO and without phenol red. After 48 h of treatment at 37° C., the relative number of living cells in each well was determined by using the CellTiter 96 system (Promega) according to the manufacturer's instructions. The 3-(4,5-dimethylthiazol-2-yl)-5-(3-carboxymethoxyphenyl)-2-(4-sulfophenyl)-2H-tetrazolium (MTS) and phenazine methosulfate (PMS) reagents were added to each well of the 96-well plate and the plate was incubated at 37° C. for approximately 2 h. The absorbance at 490 nm and 650 nm in each well was then determined by using a Flexstation 3 microplate reader (Molecular Dynamics). The absorbance determined at 650 nm was then subtracted from the absorbance determined at 490 nm to correct for light scattering. The corrected absorbance values representing the relative number of live cells in each condition were then plotted as a function of compound concentration, and the data were then fit to the following sigmoidal Emax equation by using Kaleidagraph: y=(Emax*x^Slope)/(TC50^Slope+x^Slope) where y is the relative corrected absorbance value, Emax is the maximum relative inhibition, x is the compound concentration, TC50 is the concentration of the compound at which the total cell population is reduced by 50%, and Slope is the slope of the curve.
(§4) Huh7, HEPG2, HEK293, MCF-7 and BxPC3 cell lines were maintained at 37° C. in a humidified atmosphere at 5% CO2 in DMEM containing 10% FBS. […] The cells were then treated with each compound at concentrations ranging from 500 μM to 0 μM in triplicate in DMEM media containing 2% FBS and 0.5% DMSO and without phenol red.

[2] = test system: HEPG2; assay: TC50 assay with human cancer cell lines, 96 h: HEPG2; assay type: cell-based; conditions: HepG2, 96 h, read-out: TC50 HEPG2 (μM)
Protocol: as §3, §4

[3] = TC50 assay in Huh7 cells, 48 h (CellTiter 96); conditions: human
Protocol: (§1) Huh7 cells were maintained at 37° C. in a humidified atmosphere at 5% CO2 in DMEM containing 10% FBS. […] The cells were then treated with each compound at concentrations ranging from 500 μM to 0 μM in triplicate in DMEM media containing 2% FBS and 0.5% DMSO and without phenol red. After 48 h of treatment at 37° C., the relative number of living cells in each well was determined by using the CellTiter 96 system (Promega) according to the manufacturer's instructions. The 3-(4,5-dimethylthiazol-2-yl)-5-(3-carboxymethoxyphenyl)-2-(4-sulfophenyl)-2H-tetrazolium (MTS) and phenazine methosulfate (PMS) reagents were added to each well of the 96-well plate and the plate was incubated at 37° C. for approximately 2 h. The absorbance at 490 nm and 650 nm in each well was then determined by using a Flexstation 3 microplate reader ([…]). The absorbance determined at 650 nm was then subtracted from the absorbance determined at 490 nm to correct for light scattering. The corrected absorbance values representing the relative number of live cells in each condition were then plotted as a function of compound concentration, and the data were then fit to the following sigmoidal Emax equation by using Kaleidagraph: y=(Emax*x^Slope)/(TC50^Slope+x^Slope) where y is the relative corrected absorbance value, Emax is the maximum relative inhibition, x is the compound concentration, TC50 is the concentration of the compound at which the total cell population is reduced by 50%, and Slope is the slope of the curve.
The data in Table 1 were determined for cells exposed to drug for 48 h. The IC50 is the concentration of each compound necessary to inhibit the replication of the HCV luciferase replicon to 50%. “TC50,” refers to toxic concentration necessary to reduce the cell population by 50%. All compounds were purified by HPLC.

[4] = test system: RPK9 cells; assay: TC50 assay in gemcitabine resistant (dCK deficient) RPK9 cells, 48 h; conditions: read-out: TC50 (μM) in RPK9 cells at 48 hr
Protocol: as §1
(§2) PK9 and RPK9 cells were maintained at 37° C. in a humidified atmosphere at 5% CO2 in Roswell Park Memorial Institute (RPMI) media containing 10% FBS. […] The cells were then treated with each compound at concentrations ranging from […] to 0 μM in triplicate in RPMI media containing 2% FBS and 0.5% DMSO and without phenol red. […] The RPK9 cells were derived from the parental PK9 cell line, and are deficient for dCK activity due to the partial deletion of the dCK gene.

[5] = test system: Huh7; assay: TC50 assay with human cancer cell lines, 96 h: Huh7; assay type: cell-based
Protocol: as §3, §4

[6] = test system: MCF-7; assay: TC50 assay with human cancer cell lines, 96 h: MCF-7; assay type: cell-based
Protocol: as §3, §4

[7] = test system: HCV luciferase replicon; assay: IC50 assay: inhibition of the HCV luciferase replicon in Huh7 cells; assay type: cell-based; conditions: for IC50: Hepatitis C virus; for Therapeutic Index (TC50/IC50): TC50 in Huh7 / IC50 HCV replicon, 48 h
Protocol: After 48 h of treatment at 37° C., the media in each well was removed, the cells were gently washed once with phosphate buffered saline (PBS) and subsequently lysed by the addition of Glo Lysis Buffer (Promega). After a 15 min incubation at room temperature to allow for complete cell lysis, Bright-Glo luciferase reagent (Promega) was added to each well and the relative luciferase activity in each well was determined by using a Glowmax 96 microplate luminometer (Promega).
IC50 values determined using the above methods for inhibition of the HCV luciferase replicon in Huh7 cells are set forth in Table 1.
All compounds were purified by HPLC.

[8] = test system: PK9 cells; assay: TC50 assay in PK9 cells, 48 h; conditions: Homo sapiens, PK9, 48 h, read-out: TC50 (μM) in PK9 cells at 48 hr
Protocol: as §1, §2

[9] = test system: BxPC3; assay: TC50 assay with human cancer cell lines, 96 h: BxPC3; assay type: cell-based
Protocol: as §3, §4

[10] = test system: HCV luciferase replicon; assay: Isobologram analysis of synergism with antiviral compound in HCV luciferase replicon; assay type: cell-based
Protocol: Isobologram analysis was conducted to assess the potential synergistic interaction of representative disclosed compounds with representative antiviral compounds. The isobolgram analysis was conducted as previously described by Chou and Talalay (see Chou T. C. and Talalay P. “Analysis of combined drug effects: a new look at a very old problem.” Trends Pharmacol Sci 1983; 4:450-4; and Chou T. C. and Talalay P. “Quantitative analysis of dose-effect relationships: the combined effects of multiple drugs or enzyme inhibitors.” Adv Enzyme Regul 1984; 22:27-55; both of which are incorporated herein by reference in their entirety). The definitions of synergism are those described by Chou (see Chou, T. C. (2006) Theoretical basis, experimental design, and computerized simulation of synergism and antagonism in drug combination studies. Pharmacol Rev. 58(3):621-81, which is incorporated herein by reference in its entirety).
In the synergism studies described herein, the antiviral compound shown in Table 6 was assessed in combination with a representative disclosed compound, Compound 1.

[11] = HEK293, 96 h, read-out: TC50 HEK293 (μM)
[12] = Huh-7, 96 h, read-out: TC50 Huh7 (μM)
[13] = MCF7, 96 h, read-out: TC50 MCF-7 (μM)
[14] = BXPC-3, 96 h, read-out: TC50 BxPC3 (μM)
[15] = Huh-7, Huh7 cells containing HCV luciferase replicon, 48 h exposure, read-out: IC50

Structure (SMILES)	Therapeutic Index (TC50/IC50) [7]	CC50 at 48 h ([3]; Huh7 cells) [µM]	IC50 [7, 15] [µM]	further results
COc1cc(C(=O)Nc2ccn([C@@H]3O[C@H](CO[P@@](=O)(N[C@@H](C)C(=O)OC(C)C)Oc4ccccc4)C(O)C3(F)F)c(=O)n2)cc(OC)c1OC (stereo in doubt) [Compound 3]	210	–	–	CC50 [1, 11]: 1.1 µM; CC50 [2]: 1.57 µM; CC50 at 48 h [3]: 57.5 ± 11.6 µM; CC50 [4]: 24.2 ± 4.2 µM; CC50 [5, 12]: 8.37 µM; CC50 [6, 13]: 0.683 µM; IC50 ([7]; Huh-7, 48 h): 0.274 ± 0.08 µM; CC50 [8]: 18.5 ± 11.9 µM; CC50 [9, 14]: 4.07 µM
CC(C)OC(=O)[C@H](C)NP(=O)(OC[C@H]1OC(n2ccc(NC(=O)C3Cc4ccccc4C3)nc2=O)C(F)(F)[C@@H]1O)Oc1ccccc1 (stereo in doubt) [Compound 13, (2S)-isopropyl 2-(((R)-(((2R,3R)-5-(4-(2,3-dihydro-1H-indene-2-carboxamido)-2-oxopyrimidin-1(2H)-yl)-4,4-difluoro-3-hydroxytetrahydrofuran-2-yl)methoxy)(phenoxy)phosphoryl)amino)-propanoate]	684	–	–	CC50 at 48 h [3]: 236 µM; IC50 ([7]; Huh-7, 48 h): 0.345 µM
COC(=O)N[C@H](C(=O)N1CCC[C@H]1c1ncc(-c2ccc(-c3ccc(-c4cnc([C@@H]5CCCN5C(=O)[C@@H](NC(=O)OC)C(C)C)[nH]4)cc3)cc2)[nH]1)C(C)C [BMS-790052, carbamic acid, N,N′-[[1,1′-biphenyl]-4,4′-diylbis[1H-imidazole-5,2-diyl-(2S)-2,1-pyrrolidinediyl[(1S)-1-(1-methylethyl)-2-oxo-2,1-ethanediyl]]]bis-, C,C′-dimethyl ester, reference compound]	–	–	–	Combination Index ([10]; Compound 1 0.0 nM, BMS-790052 0.020 nM): 1.000; concentration of the single agent on the IC50 isobologram (Combination Index 1.000) ([10]; compound alone, other compound 0 nM): 0.020 nM
CCCC(CCC)C(=O)Nc1ccn([C@@H]2O[C@@H]3CO[P@@](=O)(OC(C)C)O[C@H]3C2(F)F)c(=O)n1 [Compound 2, N-(1-((2S,4aR,6R,7aR)-7,7-difluoro-2-isopropoxy-2-oxidotetrahydro-4H-furo[3,2-d][1,3,2]-dioxaphosphinin-6-yl)-2-oxo-1,2-dihydropyrimidin-4-yl)-2-propylpentanamide]	23.4	175 ± 23	7.48	CC50 [4]: 537 ± 55 µM; CC50 [8]: 716 ± 104 µM
O=C(Nc1ccn(C2O[C@H](CO)[C@@H](O)C2(F)F)c(=O)n1)c1ccc2c(c1)CCCC2 (stereo partly drawn) [Compound 5, N-(1-((4R,5R)-3,3-difluoro-4-hydroxy-5-(hydroxymethyl)tetrahydrofuran-2-yl)-2-oxo-1,2-dihydropyrimidin-4-yl)-5,6,7,8-tetrahydronaphthalene-2-carboxamide]	1,535	132	0.086	–
O=C(Nc1ccn(C2O[C@H](CO)[C@@H](O)C2(F)F)c(=O)n1)c1ccc2cc(Br)ccc2c1 (stereo partly drawn) [Compound 6, 6-bromo-N-(1-((4R,5R)-3,3-difluoro-4-hydroxy-5-(hydroxymethyl)tetrahydrofuran-2-yl)-2-oxo-1,2-dihydropyrimidin-4-yl)-2-naphthamide]	400	74	0.185	–
O=C(Nc1ccn(C2O[C@H](CO)[C@@H](O)C2(F)F)c(=O)n1)c1ccc2ccccc2c1 (stereo partly drawn) [Compound 7, N-(1-((4R,5R)-3,3-difluoro-4-hydroxy-5-(hydroxymethyl)tetrahydrofuran-2-yl)-2-oxo-1,2-dihydropyrimidin-4-yl)-2-naphthamide]	992	125	0.126	–
O=C(Nc1ccn(C2O[C@H](CO)[C@@H](O)C2(F)F)c(=O)n1)c1ccc2c(c1)C(=O)c1ccccc1C2=O (stereo partly drawn) [Compound 8, N-(1-((4R,5R)-3,3-difluoro-4-hydroxy-5-(hydroxymethyl)tetrahydrofuran-2-yl)-2-oxo-1,2-dihydropyrimidin-4-yl)-9,10-dioxo-9,10-dihydroanthracene-2-carboxamide]	19,450	249	0.0128	–
O=C(Nc1ccn(C2O[C@H](CO)[C@@H](O)C2(F)F)c(=O)n1)c1cccc2c1CCCC2 (stereo partly drawn) [Compound 9, N-(1-((4R,5R)-3,3-difluoro-4-hydroxy-5-(hydroxymethyl)tetrahydrofuran-2-yl)-2-oxo-1,2-dihydropyrimidin-4-yl)-5,6,7,8-tetrahydronaphthalene-1-carboxamide]	571	92	0.161	–
COc1ccc2cc(C(=O)Nc3ccn(C4O[C@H](CO)[C@@H](O)C4(F)F)c(=O)n3)ccc2c1 (stereo partly drawn) [Compound 10, N-(1-((4R,5R)-3,3-difluoro-4-hydroxy-5-(hydroxymethyl)tetrahydrofuran-2-yl)-2-oxo-1,2-dihydropyrimidin-4-yl)-6-methoxy-2-naphthamide]	1,796	168	0.0935	–
O=C(Nc1ccn(C2O[C@H](CO)[C@@H](O)C2(F)F)c(=O)n1)C1Cc2ccccc2C1 (stereo partly drawn) [Compound 11, N-(1-((4R,5R)-3,3-difluoro-4-hydroxy-5-(hydroxymethyl)tetrahydrofuran-2-yl)-2-oxo-1,2-dihydropyrimidin-4-yl)-2,3-dihydro-1H-indene-2-carboxamide]	>50,000	> 500	0.01	–
O=C(Nc1ccn(C2O[C@H](CO)[C@@H](O)C2(F)F)c(=O)n1)c1ccc2c(c1)CCC2 (stereo partly drawn) [Compound 12, N-(1-((4R,5R)-3,3-difluoro-4-hydroxy-5-(hydroxymethyl)tetrahydrofuran-2-yl)-2-oxo-1,2-dihydropyrimidin-4-yl)-2,3-dihydro-1H-indene-5-carboxamide]	6,451	378	0.0586	–
O=C(Nc1ccn(C2O[C@H](CO)[C@@H](O)C2(F)F)c(=O)n1)c1ccc2c(c1)OCO2 (some centres unmarked) [Non-phosphorylated analog of Compound 4]	7910	473 ± 74	0.0598 ± 0.0084	CC50 ([1]; HEK293, 96 h of treatment, read-out: TC50 HEK293): 4.09 µM; CC50 [4]: > 500 µM; CC50 ([5]; Huh-7, 96 h of treatment, read-out: TC50 Huh7): 7.04 µM; CC50 ([6]; MCF7, 96 h of treatment, read-out: TC50 MCF-7): 1.19 µM; CC50 ([9]; BXPC-3, 96 h of treatment, read-out: TC50 BxPC3): 0.72 µM
CC(C)OC(=O)[C@H](C)N[P@](=O)(OC[C@H]1O[C@@H](n2ccc(N)nc2=O)C(F)(F)C1O)Oc1ccccc1 (some centres unmarked) [Phosphorylated analog of Gemcitabine]	–	–	–	CC50 [1, 11]: 0.38 µM; CC50 [2]: 0.89 µM; CC50 [4]: 21 µM; CC50 [5, 12]: 4.15 µM; CC50 [6, 13]: 0.115 µM; CC50 [8]: 11.2 µM; CC50 [9, 14]: 0.76 µM
